Experimental data reported in US12162877B2, “Human dihydroorotate dehydrogenase (hDHODH) inhibitors and their use in targeting oncological diseases sensitive to pyrimidine starvation” (DRUG DISCOVERY AND CLINIC S.R.L., priority 2018, dated 2024).
≈ marks a conversion by molar mass, not a printed value. Read-outs that look alike come from different tables or passages of the source. Values belong to the compound of their own block, whether it stands above or below them.

How the values were obtained:
Jurkat T cells [1] = test: Proliferation assay, Jurkat T cells (Hoechst 33258 DNA content); format: cell-based; conditions: 72 h
PHA-stimulated PBMC [2] = test: Immunosuppression assay, PHA-stimulated PBMC proliferation; format: cell-based
[3] = test system: MDA MB231 (breast cancer cells); test: Cytotoxicity in human cancer cell lines, MDA MB231; format: cell-based; conditions: MDA-MB-231, MDA MB231, 72 h
Description: (§1) In the last phase of their study, the present inventors evaluated the effects of our hDHODH inhibitors on a series of human cancer cell lines.

[4] = test system: A2780 (ovarian cancer cells); test: Cytotoxicity in human cancer cell lines, A2780; format: cell-based; conditions: A2780, 72 h
Description: as §1

[5] = test system: PANC-1 (pancreatic cancer cells); test: Cytotoxicity in human cancer cell lines, PANC-1; format: cell-based; conditions: PANC-1, 72 h
Description: as §1

[6] = test system: HEPG2 (liver hepatocellular cancer cells); test: Cytotoxicity in human cancer cell lines, HEPG2; format: cell-based
Description: as §1

[7] = test system: HCT-116 (colon cancer cells); test: Cytotoxicity in human cancer cell lines, HCT-116; format: cell-based; conditions: HCT-116, 72 h
Description: as §1

Serum stability = format: in vitro ADME; conditions: 37° C.
[8] = Protein binding in vitro (ultrafiltration); format: in vitro ADME; conditions: human serum protein binding
U937 [9] = test: CFSE-based cytotoxic activity assay, U937; format: cell-based; conditions: U937, 0.01-10 μM, 3 days, FIG. 5A
THP1 [10] = test: CFSE-based cytotoxic activity assay, THP1; format: cell-based; conditions: THP1, 0.01-10 μM, 3 days, FIG. 5A
U937 [11] = test: Differentiation assay, U937 (CD11b); format: cell-based, human
Procedure: (§2) Cell lines and drug treatment.
(§3) Flow cytometric analysis. The expression of CD11b (PE-conjugated BD Bioscience San Jose, CA, USA), and CD14 (FITC-conjugated Beckam Coulter CA, USA), cell surface molecules was determined by flow cytometry analysis. […] Samples were acquired on a FACS Calibur and dead cells were excluded from the analyses, according to the use of propidium iodide (Sigma-Aldrich, Milan, Italy). Data were processed using Kaluza software version 1.2 (Beckman Coulter Fullerton, CA).
(§4) Differentiation assay. 1×10^4 cells (THP1 and U937), were plated in 96 well round-bottom plates and DHODH inhibitors were added, from 0.1 μM to 10 μM, to a volume of 200 μl of medium. The differentiation kinetics was monitored from day 1 to day 4 for U937, and to day 5 for THP1. Cells were washed and either stained with CD11b (U937), or with CD11b and CD14 (THP1), as described above. The differentiation assay was also performed in the presence of uridine 100 μM and analyzed on day 3

THP1 [12] = test: Differentiation assay, THP1 (CD14); format: cell-based, human
Procedure: as §2, §3, §4

[13] = 24 h, pH 7.4
recombinant hDHODH = recombinant hDHODH (Homo sapiens (Human), UniProt Q02127); test: hDHODH inhibition assay (DCIP reduction); format: biochemical
recombinant hDHODH, sequence (Q02127 31-395): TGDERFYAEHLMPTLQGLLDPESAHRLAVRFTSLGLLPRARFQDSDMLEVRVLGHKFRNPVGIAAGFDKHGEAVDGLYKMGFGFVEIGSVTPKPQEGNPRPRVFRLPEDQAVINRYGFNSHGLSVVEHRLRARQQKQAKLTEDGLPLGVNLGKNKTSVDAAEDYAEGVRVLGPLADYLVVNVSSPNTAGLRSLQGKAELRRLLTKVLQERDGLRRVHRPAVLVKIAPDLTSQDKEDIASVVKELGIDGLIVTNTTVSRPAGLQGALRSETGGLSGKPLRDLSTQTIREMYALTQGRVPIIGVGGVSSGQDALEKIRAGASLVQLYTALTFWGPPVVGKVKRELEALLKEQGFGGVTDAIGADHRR
Procedure: Protein expression and purification. […] The vector produces hDHODH as an N-terminal GST-fusion protein. The plasmid pFN2A-hDHODH was transformed into BL21 (DE3), pyrD E. coli cells for protein production. Cells were grown at 37° C. in LB medium supplemented with 0.1 mM flavin mononucleotide. […] Triton X-100 was added to the lysate, to a final concentration of 1%, before centrifugation at 14000×g for 40 min at 4° C. The clarified supernatant was incubated with DNase I (Sigma Aldrich), for 30 min at room temperature, supplemented with 2 mM DTT and filtered through a 0.45 μm syringe filter. The GST-fused enzyme was purified from the bacterial lysate using affinity chromatography on immobilized glutathione-sepharose columns and fast protein liquid chromatography (FPLC). The GST tag was not removed for further studies.
hDHODH inhibition assay. Inhibitory activity was assessed by monitoring the reduction of 2,6-dichloroindophenol (DCIP), which is associated with the oxidation of dihydroorotate as catalyzed by the DHODH enzyme. The enzyme was preincubated for five minutes at 37° C. in Tris-buffer solution (pH 8.0), with coenzyme Q10 (100 μM), with the compounds to be tested used at different concentrations (final DMSO concentration 0.1% v/v), with DCIP (50 μM). The reaction was initiated by the addition of DHO (500 μM), and the reduction was monitored at λ=650 nm. […] Values are means±SE of three independent experiments.

[14] = log D (pH 7.4) shake-flask; format: physicochemical; conditions: n-octanol/PBS
Jurkat T cells [15] = test: Cytotoxicity assay, Jurkat T cells (CellTox green); format: cell-based; conditions: 72 h, concentration causing significant (≥30%) cytotoxic effect
PHA-stimulated PBMC [16] = conditions: inhibition of PHA-stimulated PBMC proliferation; value from ref. 29; read-out: Immunosuppression IC50 ± SE; cited from earlier work
[17] = with uridine, read-out: Cytotoxicity IC50 with Uridine
[18] = in vitro assay, means ± SE of three experiments, read-out: hDHODH IC50 ± SE
[19] = enzymatic assay, values in text, read-out: hDHODH IC50

Compound: Cc1c(-c2ccc(-c3ccccc3F)cc2)nc2ccc(F)cc2c1C(=O)O [Brequinar, brequinar]
IC50 (Jurkat T cells [1]; in the presence of 100 μM uridine, read-out: Proliferation IC50 ± SE + Uridine): 94200 ± 2080 nM
IC50 (Jurkat T cells [1]; read-out: Proliferation IC50 ± SE): 910 ± 70 nM
antiproliferative effect on PHA-activated PBMCs, times greater than teriflunomide (PHA-stimulated PBMC [2]): 10 times
IC50 ([3]; read-out: Cytotoxicity IC50): 1300 nM
IC50 [3, 17]: > 100000 nM
IC50 ([4]; read-out: Cytotoxicity IC50): < 100 nM
IC50 [4, 17]: 15500 nM
IC50 ([5]; read-out: Cytotoxicity IC50): 280 nM
IC50 [5, 17]: < 100 nM
IC50 ([6]; HEPG2, 72 h, with uridine, read-out: Cytotoxicity IC50 with Uridine): > 10000 nM
IC50 ([6]; HepG2, 72 h, read-out: Cytotoxicity IC50): 46 nM
IC50 ([7]; read-out: Cytotoxicity IC50): 97 nM
IC50 [7, 17]: 3000 nM
% compound after 24 h in human serum (Serum stability): 98%
% bound [8]: 98.83%
cytotoxicity (U937 [9]): strong and concentration-dependent cytotoxicity
cytotoxicity (THP1 [10]): strong and concentration-dependent cytotoxicity
myeloid differentiation, CD11b expression (U937 [11]; U937, FIG. 6A): strong differentiation
differentiation when uridine is added (U937 [11]; U937, uridine 100 μM, day 3, FIG. 6C): reversed
myeloid differentiation, CD14 expression (THP1 [12]; THP1, FIG. 6B): strong differentiation
differentiation when uridine is added (THP1 [12]; THP1, uridine 100 μM, day 3, FIG. 6D): reversed
Solubility in PBS with 2% DMSO [13]: 449 µM

Compound: Cn1nc(O)c(C(=O)Nc2c(F)c(F)c(-c3ccccc3)c(F)c2F)n1 [Compound 2]
IC50 (recombinant hDHODH; [18]): 45 ± 13 nM

Compound: O=C(Nc1c(F)c(F)c(-c2ccccc2)c(F)c1F)c1c(O)nn2ccccc12 [Compound 4, 2-Hydroxy-N-(2,3,5,6-tetrafluoro-[1,1′-biphenyl]-4-yl)pyrazolo[1,5-a]pyridine-3-carboxamide]
times more potent than teriflunomide (hDHODH) (recombinant hDHODH; enzymatic assay, ratio of IC50): 320 times

Compound: Cn1c(=O)c(C(=O)Nc2c(F)c(F)c(-c3ccccc3)c(F)c2F)c2ccccn21 [Compound 7, 1-Methyl-2-oxo-N-(2,3,5,6-tetrafluoro-[1,1′-biphenyl]-4-yl)-1,2-dihydropyrazolo[1,5-a]pyridine-3-carboxamide]
IC50 (recombinant hDHODH; [18]): > 5000 nM

Compound: Cc1cc(NC(=O)c2c(O)nn3ccccc23)ccc1Oc1ccccc1 [Compound 9, 2-Hydroxy-N-(3-methyl-4-phenoxyphenyl)pyrazolo[1,5-a]pyridine-3-carboxamide]
IC50 (recombinant hDHODH; [18]): 480 ± 31 nM

Compound: O=C(Nc1c(F)c(F)c(-c2ccccc2)c(F)c1F)c1c(O)nn2c1CCCC2 [Compound 30, 2-Hydroxy-N-(2,3,5,6-tetrafluoro-[1,1′-biphenyl]-4-yl)-4,5,6,7-tetrahydropyrazolo[1,5-a]pyridine-3-carboxamide]
IC50 (recombinant hDHODH; [19]): 5.9 nM

Compound: O=C(Nc1c(F)c(F)c(-c2cccc(F)c2)c(F)c1F)c1c(O)nn2ccccc12 [Compound 32, 2-Hydroxy-N-(2,3,3′,5,6-pentafluoro-[1,1′-biphenyl]-4-yl)pyrazolo[1,5-a]pyridine-3-carboxamide]
IC50 (recombinant hDHODH; [19]): 2 nM
logD [14]: > 3

Compound: O=C(Nc1c(F)c(F)c(-c2cccc(C(F)(F)F)c2)c(F)c1F)c1c(O)nn2ccccc12 [Compound 33, 2-Hydroxy-N-(2,3,5,6-tetrafluoro-3′-(trifluoromethyl)-[1,1′-biphenyl]-4-yl)pyrazolo[1,5-a]pyridine-3-carboxamide]
IC50 (recombinant hDHODH; [19]): 2.3 nM
logD [14]: > 3

Continued, in another order:

IC50 (recombinant hDHODH; [19]): 4.3 nM
Compound: Cc1cccc2c(C(=O)Nc3c(F)c(F)c(-c4ccccc4)c(F)c3F)c(O)nn12 [Compound 5, 2-Hydroxy-7-methyl-N-(2,3,5,6-tetrafluoro-[1,1′-biphenyl]-4-yl)pyrazolo[1,5-a]pyridine-3-carboxamide]

IC50 (recombinant hDHODH; [19]): 760 nM
IC50 (recombinant hDHODH; [18]): 760 ± 136 nM
Compound: O=C(Nc1ccc(Oc2ccccc2)cc1)c1c(O)nn2ccccc12 [Compound 8, 2-Hydroxy-N-(4-phenoxyphenyl)pyrazolo[1,5-a]pyridine-3-carboxamide]

IC50 (recombinant hDHODH; [19]): 43 nM
IC50 (recombinant hDHODH; [18]): 43 nM
Compound: Cc1cc(Oc2ccccc2)c(C)cc1NC(=O)c1c(O)nn2ccccc12 [Compound 10, N-(2,5-Dimethyl-4-phenoxyphenyl)-2-hydroxypyrazolo[1,5-a]pyridine-3-carboxamide]

Solubility in PBS [13]: 2692 µM (≈ 727 µg/mL)
Compound: C/C(O)=C(\C#N)C(=O)Nc1ccc(C(F)(F)F)cc1 [Teriflunomide, teriflunomide]
Cytotoxicity (effect ≥30%) (Jurkat T cells [15]): 53 ± 3 µM
IC50 (PHA-stimulated PBMC [16]): 54300 nM
